Measurements reported in patent US6911443B2 (Bayer Aktiengesellschaft, priority 2000, dated 2005).

What follows are compounds tested against T1, human Syk (GST-Syk) (Homo sapiens, UniProt P43405) (assay: Syk tyrosine kinase inhibitory assay). Details: Table 13; read-out: Activity grade.
T1 construct: A cDNA fragment encoding human Syk openreading frame was cloned; made in house; host or cells: Sf21 insect cells (baculovirus, transfer vector pAcG2T)
Type: biochemical
Outline: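 Readout: streptavidin-captured biotin-AL peptide probed with europium-4G10 anti-phosphotyrosine, time-resolved fluorescence (ex 340/em 615 nm). Reaction ran 1 h at room temperature with 30 μM ATP, 3 μM peptide, 0.65 nM Sf21-expressed GST-Syk and 0.25% DMSO, pH 8.0.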

IC50	SMILES
500 to 2000 nM	COc1ccc(CSc2nc(-c3ccc(OC)c(OC)c3)cc3nccn23)cc1 [Example 14-1]
< 500 nM	COc1ccc(-c2cc3nccn3c(SCc3ccccc3)n2)cc1OC [Example 14-2]
500 to 2000 nM	COc1ccc(-c2cc3nccn3c(Oc3cccc(C)c3)n2)cc1OC [Example 14-3]
500 to 2000 nM	COc1ccc(-c2cc3nccn3c(Oc3ccccc3Br)n2)cc1OC [Example 14-4]
500 to 2000 nM	COc1ccc(-c2cc3nccn3c(Oc3cccc(Br)c3)n2)cc1OC [Example 14-5]
500 to 2000 nM	COc1ccc(-c2cc3nccn3c(Oc3ccc(Br)cc3)n2)cc1OC [Example 14-6]

Same assay, conditions: Table 17; IC50 classes; read-out: Activity grade

IC50	SMILES
< 500 nM	CCN(CC)CCNc1ccc(C(N)=O)c(Nc2nc(-c3ccc(OC)c(OC)c3)cc3nccn23)c1 [Example 12]
< 500 nM	COc1ccc(-c2cc3nccn3c(Nc3cc(N(C)C)ccc3C(N)=O)n2)cc1OC [Example 13]

Same assay, conditions: in vitro; compounds as yielded by solid phase synthesis, purity about 40 to 90%

Activity grade (IC50 class)	SMILES
C-D	COc1ccc(-c2cc3nccn3c(Sc3ccc(CC(=O)O)cc3)n2)cc1OC [Example 13-19]

Same assay, conditions: in vitro; compounds as yielded by solid phase synthesis, purity about 40 to 90%; read-out: Activity grade (IC50 class)

IC50	SMILES
< 500 nM	CCN(CC)CCNc1ccc(C(N)=O)c(Nc2nc(-c3ccc(OC)c(OC)c3)cc3nccn23)c1 [Example 12]
500 to 2000 nM	COc1ccc(-c2cc3nccn3c(Sc3cc(C)ccc3C)n2)cc1OC [Example 13-1]
< 500 nM	COc1ccc(-c2cc3nccn3c(Sc3ccccc3OC)n2)cc1OC [Example 13-2]
< 500 nM	COc1ccc(-c2cc3nccn3c(Sc3cccc(N)c3)n2)cc1OC [Example 13-3]
< 500 nM	COc1ccc(-c2cc3nccn3c(Sc3ccc(N)cc3)n2)cc1OC [Example 13-4]
2000 to 10000 nM	COc1ccc(-c2cc3nccn3c(Sc3cccc(Cl)c3Cl)n2)cc1OC [Example 13-5]
< 500 nM	COc1ccc(-c2cc3nccn3c(Sc3ccccc3Br)n2)cc1OC [Example 13-6]
< 500 nM	COc1ccc(-c2cc3nccn3c(Sc3ccccc3CO)n2)cc1OC [Example 13-7]
< 500 nM	COc1ccc(-c2cc3nccn3c(Sc3cc(OC)c(OC)c(OC)c3)n2)cc1OC [Example 13-8]
2000 to 10000 nM	COc1ccc(-c2cc3nccn3c(Sc3c(C)cccc3C)n2)cc1OC [Example 13-9]
500 to 2000 nM	COc1ccc(-c2cc3nccn3c(Sc3c(Cl)cccc3Cl)n2)cc1OC [Example 13-10]
< 500 nM	COc1ccc(-c2cc3nccn3c(Sc3nc4ccccc4s3)n2)cc1OC [Example 13-11]
< 500 nM	COc1ccc(-c2cc3nccn3c(Sc3nccn3C)n2)cc1OC [Example 13-12]
< 500 nM	COc1ccc(-c2cc3nccn3c(Sc3ncccn3)n2)cc1OC [Example 13-13]
< 500 nM	COc1ccc(-c2cc3nccn3c(Sc3ccc4c(c3)CNCC4)n2)cc1OC [Example 13-14]
< 500 nM	COc1ccc(-c2cc3nccn3c(Sc3ccc(N4CCN(C)CC4)cc3)n2)cc1OC [Example 13-16]
< 500 nM	COc1ccc(-c2cc3nccn3c(Sc3cccc(CC(O)O)c3)n2)cc1OC [Example 13-20]
2000 to 10000 nM	COc1ccc(-c2cc3nccn3c(Sc3ccc(CCCC(=O)O)cc3)n2)cc1OC [Example 13-21]
< 500 nM	COc1ccc(-c2cc3nccn3c(Sc3ccc(/C=C/C(=O)O)c(C)c3)n2)cc1OC [Example 13-22]
500 to 2000 nM	COC(=O)C1CCc2cc(Sc3nc(-c4ccc(OC)c(OC)c4)cc4nccn34)ccc2C1 (stereo not drawn) [Example 13-23]
< 500 nM	COc1ccc(-c2cc3nccn3c(Sc3ccc(CCC(=O)O)cc3)n2)cc1O [Example 13-24]
< 500 nM	COc1ccc(-c2cc3nccn3c(Sc3ccc(CCC(=O)O)cc3)n2)cc1OC(C)=O [Example 13-25]
< 500 nM	COc1cc(-c2cc3nccn3c(Sc3ccc(CCC(=O)O)cc3)n2)ccc1OCc1ccccc1 [Example 13-26]
< 500 nM	COc1cc(-c2cc3nccn3c(Sc3ccc(CCC(=O)O)cc3)n2)ccc1O [Example 13-27]
< 500 nM	COc1cc(-c2cc3nccn3c(Sc3ccc(CCC(=O)O)cc3)n2)ccc1OCCN1CCOCC1 [Example 13-28]
< 500 nM	COc1ccc(-c2cc3nccn3c(Sc3nc[nH]n3)n2)cc1OC [Example 13-29]
< 500 nM	COc1ccc(-c2cc3nccn3c(Nc3cc(N(C)C)ccc3C(N)=O)n2)cc1OC [Example 13]
